“Also recorded” adds a separate entry of the source.

One assay has as its system brain tissue. Description: in vivo selection of brain-binding phage-displayed peptides by panning in mice. Particulars: phage library injected intravenously, 30 min to 1 hour circulation, brain tissue recovered, four rounds. Details: species or system BALB/c mice. The protocol:
FIG. 1 provides the scheme for selection of tissue specific phage in vivo. In this example, candidate brain-binding peptides were selected by panning in BALB/c mice. In round one of selection, the phage library was injected intravenously. After thirty minutes of circulation, the mice were euthanized by carbon dioxide inhalation, perfused with 60 ml of ice cold PBS via the left ventricle, and brain tissue was recovered from the animals. The tissue was minced into small pieces and rinsed repeated in PBS, followed by homogenization in lysis buffer. The tissue homogenate was then incubated with fresh E coli cells and the phage present allowed to infect and lyse the bacteria. Phage were recovered by polyethylene glycol precipitation of the lysate. In subsequent rounds, the phage purified from brain tissues recovered in the previous round was injected intravenously, and tissue was recovered after thirty to sixty minutes of circulation. After the last round, the phages were plated on a lawn of bacteria and a number of pliage plaques were isolated and the DNA sequenced. Of these, a certain percentage represented the dominant selected clone.
To remove unbound, non-specific phage, from the parenchyma of the tissue, the screening protocol of Example 2 was modified. After intravenous administration, the phage were left in circulation for 1 hour (30 minutes in Example 2) to allow more phage clones with CNS binding affinity to reach their target. CNS tissue samples were then homogenized in TBS buffer instead of the lysis buffer which was used at this step previously. Tissue homogenates were pelleted by centrifugation and the supernatant was discarded. The pellet was washed two more times in TBS to remove unbound phage. The pellet was re-homogenized in lysis buffer and the remainder of the selection protocol was completed as described in Example 2. The following brain specific peptides were determined: […]
GETRAPL [Gly-Glu-Thr-Arg-Ala-Pro-Leu]: the binding to brain entry was “binding to brain”.

On to “LFTPPVL [Leu-Phe-Thr-Pro-Pro-Val-Leu, brain specific peptide selected by in vivo phage display]”, for which the binding to brain entry is reported as “specific for binding to the brain”.

For “LPHQNNR [Leu-Pro-His-Gln-Asn-Asn-Arg, brain specific peptide selected by in vivo phage display]”, the binding to brain result is “specific for binding to the brain”.

Take “LPLTPLP [Leu-Pro-Leu-Thr-Pro-Leu-Pro, brain specific peptide selected by in vivo phage display]”: the binding to brain entry is reported as “specific for binding to the brain”.

Turning to “QPTASLT [Gln-Pro-Thr-Ala-Ser-Leu-Thr, brain specific peptide selected by in vivo phage display]”, the binding to brain result is listed as “specific for binding to the brain”.

Turning to “SSHTISF [Ser-Ser-His-Thr-Ile-Ser-Phe, brain specific peptide selected by in vivo phage display]”, the binding to brain result is listed as “specific for binding to the brain”.

For a further assay, the system named is skeletal muscle.
Test: not given
The conditions noted are these: as described in U.S. Pat. No. 6,329,501; cited from earlier work.
With GETRAPL [Gly-Glu-Thr-Arg-Ala-Pro-Leu], the “binding to skeletal muscle” value is reported as “capable of binding to skeletal muscle; also recorded: also binds skeletal muscle”.
